Values of other authors as cited in patent publication US20040082013A1, “Methods for screening for substances which inhibit fp prostanoid receptor interaction with a compound having pgf2alpha activity and methods of treating cancer” (priority 2003, published 2004).

What was measured:
[1] = tested on: eyelashes and adjacent hair; settings: some patients receiving latanoprost for glaucoma; treated eye, not untreated eye
skin carcinogenesis = settings: animal models of skin carcinogenesis

Compound	hair growth side effect [1]	effect on anti-tumor promoting activity of indomethacin (skin carcinogenesis)	effect on tumor promoting activity of phorbol esters (skin carcinogenesis)
CC(C)OC(=O)CCC/C=C\C[C@@H]1[C@@H](CC[C@@H](O)CCc2ccccc2)[C@H](O)C[C@@H]1O [latanoprost]	hypertrichosis of the eyelashes and adjacent hair in the treated eye		
prostaglandin F2α [PGF2α]		reversed the anti-tumor promoting activity of indomethacin	increased the tumor promoting activity of phorbol esters
